Assay results: ChEMBL document CHEMBL1156532, “Model structure of the Na+/H+ exchanger 1 (NHE1): functional and clinical implications” (J Biol Chem, 2007)

How the values were obtained:
[1] = target: Na(+)/H(+) antiporter NhaA (Escherichia coli K-12, UniProt P13738, H225Q); test: Antiporter activity in Escherichia coli K12 wild type EcNhaA H225Q mutant assessed as effect on sodium chloride-induced pH changes by acridine orange fluorescence assay
[2] = target: T1, Na(+)/H(+) antiporter NhaA (Escherichia coli K-12, UniProt P13738, H225R); test: Antiporter activity in Escherichia coli K12 wild type EcNhaA H225R mutant assessed as effect on lithium chloride-induced pH changes by acridine orange fluorescence assay
[3] = target: T1, Na(+)/H(+) antiporter NhaA; test: Antiporter activity in Escherichia coli K12 wild type EcNhaA H225R mutant assessed as effect on sodium chloride-induced pH changes by acridine orange fluorescence assay
[4] = Antiporter activity in Escherichia coli K12 wild type EcNhaA N64C mutant assessed as effect on lithium chloride-induced pH changes by acridine orange fluorescence assay
[5] = Antiporter activity in Escherichia coli K12 wild type EcNhaA G76C mutant assessed as effect on lithium chloride-induced pH changes by acridine orange fluorescence assay
[6] = Antiporter activity in Escherichia coli K12 wild type EcNhaA G76C mutant assessed as effect on sodium chloride-induced pH changes by acridine orange fluorescence assay
[7] = Antiporter activity in Escherichia coli K12 wild type EcNhaA F72C mutant assessed as effect on lithium chloride-induced pH changes by acridine orange fluorescence assay
[8] = Antiporter activity in Escherichia coli K12 wild type EcNhaA F72C mutant assessed as effect on sodium chloride-induced pH changes by acridine orange fluorescence assay
[9] = target: Na(+)/H(+) antiporter NhaA (Escherichia coli K-12, UniProt P13738, F71C); test: Antiporter activity in Escherichia coli K12 wild type EcNhaA F71C mutant assessed as effect on lithium chloride-induced pH changes by acridine orange fluorescence assay
[10] = Antiporter activity in Escherichia coli K12 wild type EcNhaA W62C mutant assessed as effect on lithium chloride-induced pH changes by acridine orange fluorescence assay
[11] = target: Na(+)/H(+) antiporter NhaA (Escherichia coli K-12, UniProt P13738, W62C); test: Antiporter activity in Escherichia coli K12 wild type EcNhaA W62C mutant assessed as effect on sodium chloride-induced pH changes by acridine orange fluorescence assay
[12] = target: T2, Na(+)/H(+) antiporter NhaA (Escherichia coli K-12, UniProt P13738); test: Antiporter activity in Escherichia coli K12 wild type EcNhaA assessed as effect on lithium chloride-induced pH changes by acridine orange fluorescence assay
T2 sequence (P13738 whole entry): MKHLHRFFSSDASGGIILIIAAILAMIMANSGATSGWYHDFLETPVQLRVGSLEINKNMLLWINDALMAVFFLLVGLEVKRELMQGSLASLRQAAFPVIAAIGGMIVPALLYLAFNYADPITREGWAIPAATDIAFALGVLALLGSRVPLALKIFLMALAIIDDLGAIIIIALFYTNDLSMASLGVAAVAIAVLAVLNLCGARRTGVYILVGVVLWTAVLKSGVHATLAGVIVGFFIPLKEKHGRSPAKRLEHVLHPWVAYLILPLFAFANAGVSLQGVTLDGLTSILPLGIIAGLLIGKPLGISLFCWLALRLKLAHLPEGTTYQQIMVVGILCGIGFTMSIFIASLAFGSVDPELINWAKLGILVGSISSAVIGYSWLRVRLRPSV

[13] = target: T2, Na(+)/H(+) antiporter NhaA; test: Antiporter activity in Escherichia coli K12 wild type EcNhaA assessed as effect on sodium chloride-induced pH changes by acridine orange fluorescence assay
[14] = Antiporter activity in Escherichia coli K12 wild type EcNhaA H225Q mutant assessed as effect on lithium chloride-induced pH changes by acridine orange fluorescence assay
[15] = Antiporter activity in Escherichia coli K12 wild type EcNhaA N64C mutant assessed as effect on sodium chloride-induced pH changes by acridine orange fluorescence assay
[16] = Antiporter activity in Escherichia coli K12 wild type EcNhaA F71C mutant assessed as effect on sodium chloride-induced pH changes by acridine orange fluorescence assay

T1 sequence (P13738 whole entry H225R): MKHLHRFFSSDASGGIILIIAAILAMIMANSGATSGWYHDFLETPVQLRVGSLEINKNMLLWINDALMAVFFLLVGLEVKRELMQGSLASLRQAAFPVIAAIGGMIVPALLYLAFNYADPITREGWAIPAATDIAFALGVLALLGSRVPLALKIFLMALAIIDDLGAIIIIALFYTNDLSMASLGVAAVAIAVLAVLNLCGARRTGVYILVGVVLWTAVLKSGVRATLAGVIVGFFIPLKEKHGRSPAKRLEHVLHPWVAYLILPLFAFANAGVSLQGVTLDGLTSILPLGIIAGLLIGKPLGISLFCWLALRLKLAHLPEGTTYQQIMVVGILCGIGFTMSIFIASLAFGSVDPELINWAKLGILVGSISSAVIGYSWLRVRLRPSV
Chain of Na(+)/H(+) antiporter NhaA (Escherichia coli K-12, UniProt P13738, H225Q) (P13738 whole entry H225Q): as the sequence (P13738 whole entry H225R) above, with R225Q counted along it
Chain of Na(+)/H(+) antiporter NhaA (Escherichia coli K-12, UniProt P13738, F71C) (P13738 whole entry F71C): as the sequence (P13738 whole entry H225R) above, with F71C, R225H counted along it
Chain of Na(+)/H(+) antiporter NhaA (Escherichia coli K-12, UniProt P13738, W62C) (P13738 whole entry W62C): as the sequence (P13738 whole entry H225R) above, with W62C, R225H counted along it

SMILES: NC1=Nc2cccc3cccc(c23)N1
- IC50 [1]: 800 nM
- IC50 [2]: 2300 nM
- IC50 [3]: 1000 nM
- IC50 [4]: 17000 nM
- IC50 [5]: 1200 nM
- IC50 [6]: 1600 nM
- IC50 [7]: 2600 nM
- IC50 [8]: 1800 nM
- IC50 [9]: 800 nM
- IC50 [10]: 1500 nM
- IC50 [11]: 1200 nM
- IC50 [12]: 2200 nM
- IC50 [13]: 1700 nM
- IC50 [14]: 7800 nM
- IC50 [15]: 500 nM
- IC50 [16]: 300 nM
